Source: the NIST ThermoML archive (doi:10.1016/j.jct.2015.06.019)
Numbers after ± are expanded uncertainties.

Assays:
[1] = DSC
[2] = Molar enthalpy of transition or fusion; settings: DSC

COC(=O)[C@H](c1ccccc1Cl)N1CCc2sccc2C1.O=S(=O)(O)O [(S)-(+)-Clopidogrel hydrogen sulfate]
Triple point temperature ([1]; Crystal 1): 458.4 ± 1 K
Triple point temperature ([1]; Crystal 2): 454.7 ± 1 K
Molar enthalpy of transition or fusion ([2]; Crystal 1): 7.98 ± 0.335 kcal/mol
Molar enthalpy of transition or fusion ([2]; Crystal 2): 9.09 ± 0.382 kcal/mol
